Tests used:
α4β7 integrin = target: T1, α4β7 integrin (Homo sapiens, UniProt P13612+P26010); test: a4b7 IC50 (inhibition of α4β7 integrin; no method described); assay type: binding
T1 sequence (P13612 34-1032): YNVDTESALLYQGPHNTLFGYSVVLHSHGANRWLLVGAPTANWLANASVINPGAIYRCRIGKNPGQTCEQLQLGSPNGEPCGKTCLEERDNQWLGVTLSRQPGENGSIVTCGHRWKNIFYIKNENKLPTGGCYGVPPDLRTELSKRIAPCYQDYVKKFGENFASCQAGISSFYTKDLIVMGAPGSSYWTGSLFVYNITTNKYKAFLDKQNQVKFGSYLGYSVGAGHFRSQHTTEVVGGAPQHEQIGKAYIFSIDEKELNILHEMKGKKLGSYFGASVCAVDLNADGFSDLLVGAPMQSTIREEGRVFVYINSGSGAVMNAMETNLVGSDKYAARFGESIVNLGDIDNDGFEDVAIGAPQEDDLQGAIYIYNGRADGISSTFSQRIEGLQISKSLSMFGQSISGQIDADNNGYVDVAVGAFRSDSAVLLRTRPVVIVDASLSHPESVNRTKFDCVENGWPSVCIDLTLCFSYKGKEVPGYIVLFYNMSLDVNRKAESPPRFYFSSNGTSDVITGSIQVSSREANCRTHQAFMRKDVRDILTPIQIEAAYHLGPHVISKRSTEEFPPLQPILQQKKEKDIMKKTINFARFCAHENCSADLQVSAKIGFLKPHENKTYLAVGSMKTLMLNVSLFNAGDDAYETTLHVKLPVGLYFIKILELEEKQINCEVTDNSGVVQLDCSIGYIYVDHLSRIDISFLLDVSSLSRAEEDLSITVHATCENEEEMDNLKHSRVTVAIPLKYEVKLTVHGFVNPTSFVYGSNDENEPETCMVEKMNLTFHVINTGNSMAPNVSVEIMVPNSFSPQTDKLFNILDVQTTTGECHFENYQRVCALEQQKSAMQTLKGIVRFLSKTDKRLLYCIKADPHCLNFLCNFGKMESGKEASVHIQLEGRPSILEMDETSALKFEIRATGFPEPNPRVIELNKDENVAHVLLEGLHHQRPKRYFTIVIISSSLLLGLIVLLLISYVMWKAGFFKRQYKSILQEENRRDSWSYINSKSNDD
T1 sequence (P26010 20-798): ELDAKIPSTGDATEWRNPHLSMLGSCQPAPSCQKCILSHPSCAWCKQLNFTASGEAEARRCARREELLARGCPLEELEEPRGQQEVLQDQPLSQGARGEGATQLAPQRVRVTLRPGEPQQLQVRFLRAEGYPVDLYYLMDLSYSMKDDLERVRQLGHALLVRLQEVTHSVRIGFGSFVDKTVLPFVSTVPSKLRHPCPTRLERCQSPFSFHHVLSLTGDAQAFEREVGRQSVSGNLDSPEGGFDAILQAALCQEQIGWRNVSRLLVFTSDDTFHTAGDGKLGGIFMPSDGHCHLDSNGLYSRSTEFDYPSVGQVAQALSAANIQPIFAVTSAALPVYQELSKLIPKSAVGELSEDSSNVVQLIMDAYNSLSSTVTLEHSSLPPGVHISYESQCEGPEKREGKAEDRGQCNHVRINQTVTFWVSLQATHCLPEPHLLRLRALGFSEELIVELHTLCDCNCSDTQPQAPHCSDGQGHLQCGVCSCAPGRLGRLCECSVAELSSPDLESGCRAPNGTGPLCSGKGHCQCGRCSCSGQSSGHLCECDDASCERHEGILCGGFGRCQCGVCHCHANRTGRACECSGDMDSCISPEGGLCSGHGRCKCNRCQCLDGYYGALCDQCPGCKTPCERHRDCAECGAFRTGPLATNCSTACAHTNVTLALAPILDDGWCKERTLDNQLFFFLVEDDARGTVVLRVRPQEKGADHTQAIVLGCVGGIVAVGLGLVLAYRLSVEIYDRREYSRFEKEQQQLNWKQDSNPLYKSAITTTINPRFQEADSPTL

α4β1 integrin = α4β1 integrin (Homo sapiens, UniProt P05556+P13612); test: a4b1 IC50 (inhibition of α4β1 integrin; no method described); assay type: binding
α4β1 integrin, sequence (P05556 21-798, one chain of several): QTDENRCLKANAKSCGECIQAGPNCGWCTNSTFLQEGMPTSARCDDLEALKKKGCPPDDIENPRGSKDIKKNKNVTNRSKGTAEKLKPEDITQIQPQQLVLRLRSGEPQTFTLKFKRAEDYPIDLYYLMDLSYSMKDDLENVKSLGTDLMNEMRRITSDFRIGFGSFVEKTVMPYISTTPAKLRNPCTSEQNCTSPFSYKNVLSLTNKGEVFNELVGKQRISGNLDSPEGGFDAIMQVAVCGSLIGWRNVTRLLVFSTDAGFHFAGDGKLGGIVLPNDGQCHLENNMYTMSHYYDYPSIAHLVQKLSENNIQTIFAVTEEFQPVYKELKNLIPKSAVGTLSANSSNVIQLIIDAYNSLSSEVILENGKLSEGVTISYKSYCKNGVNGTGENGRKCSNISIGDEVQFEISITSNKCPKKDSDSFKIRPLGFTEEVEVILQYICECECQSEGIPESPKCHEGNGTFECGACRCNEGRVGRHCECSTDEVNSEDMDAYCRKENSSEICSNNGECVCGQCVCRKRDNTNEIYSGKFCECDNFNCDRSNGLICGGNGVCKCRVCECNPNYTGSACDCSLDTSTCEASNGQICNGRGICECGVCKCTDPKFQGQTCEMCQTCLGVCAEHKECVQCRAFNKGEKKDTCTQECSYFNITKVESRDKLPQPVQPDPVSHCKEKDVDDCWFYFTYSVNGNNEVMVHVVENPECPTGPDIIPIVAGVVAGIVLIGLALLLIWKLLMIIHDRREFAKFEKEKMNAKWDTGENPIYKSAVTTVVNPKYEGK

Structure (SMILES) | IC50 (α4β7 integrin) [nM] | IC50 (α4β1 integrin) [nM]
Cc1ccccc1C(F)(F)c1cccc([C@H](CC(=O)O)NC(=O)Nc2c(O)ccn(C)c2=O)c1 [Compound 3-65, sodium (S)-3-(3-(difluoro(o-tolyl)methyl)phenyl)-3-(3-(1-methyl-4-oxido-2-oxo-1,2-dihydropyridin-3-yl)ureido)propanoate] | < 200 | < 20
Cn1ccc(O)c(NC(=O)N[C@@H](CC(=O)O)c2cccc(Oc3ccccc3)c2)c1=O [Compound 3-71, sodium (S)-3-(3-(1-methyl-4-oxido-2-oxo-1,2-dihydropyridin-3-yl)ureido)-3-(3-phenoxyphenyl)propanoate] | < 20 | < 200
